Data published in the NIST ThermoML archive (doi:10.1021/je050540h).
± gives the expanded uncertainty stated by the source.

Experiment: xn = mol fraction of the nth substance listed
Details: 101 kPa, Liquid

CCC(C)O (configuration not stated) [butan-2-ol] + C1CCCC1
x2 = 0
Details	mass density [kg/m3]	speed of sound [m/s]	viscosity [mPa·s]
293.15 K	806.84 ± 0.47	1230 ± 3	3.623 ± 0.084
298.15 K	802.72 ± 0.48	1212 ± 3	2.995 ± 0.071
303.15 K	798.51 ± 0.48	1194 ± 3	2.493 ± 0.06

CCC(C)O (configuration not stated) [butan-2-ol] + C1CCCCC1
Details	mass density, 293.15 K [kg/m3]	mass density, 298.15 K [kg/m3]	mass density, 303.15 K [kg/m3]	speed of sound, 293.15 K [m/s]	speed of sound, 298.15 K [m/s]	speed of sound, 303.15 K [m/s]	viscosity, 293.15 K [mPa·s]	viscosity, 298.15 K [mPa·s]	viscosity, 303.15 K [mPa·s]
x2 = 0	806.84 ± 0.47	802.72 ± 0.48	798.51 ± 0.48	1230 ± 3	1212 ± 3	1194 ± 3	3.623 ± 0.084	2.995 ± 0.071	2.493 ± 0.06
x2 = 0.0494	804.24 ± 0.47	800.04 ± 0.48	795.77 ± 0.49	1228 ± 3	1210 ± 3	1191 ± 3	3.231 ± 0.076	2.687 ± 0.064	2.251 ± 0.054
x2 = 0.1003	801.95 ± 0.47	797.69 ± 0.48	793.34 ± 0.49	1226 ± 3	1207 ± 3	1188 ± 3	2.915 ± 0.068	2.444 ± 0.058	2.066 ± 0.05
x2 = 0.1969	797.77 ± 0.48	793.37 ± 0.48	788.88 ± 0.49	1223 ± 3	1204 ± 3	1184 ± 3	2.227 ± 0.054	1.891 ± 0.046	1.623 ± 0.039
x2 = 0.3052	793.48 ± 0.48	788.95 ± 0.48	784.34 ± 0.49	1222 ± 3	1201 ± 3	1181 ± 3	1.726 ± 0.042	1.489 ± 0.036	1.294 ± 0.032
x2 = 0.4044	789.86 ± 0.48	785.24 ± 0.49	780.54 ± 0.49	1222 ± 3	1201 ± 3	1179 ± 3	1.48 ± 0.036	1.299 ± 0.032	1.142 ± 0.028
x2 = 0.5004	786.73 ± 0.48	782.04 ± 0.49	777.29 ± 0.49	1224 ± 3	1202 ± 3	1180 ± 3	1.315 ± 0.032	1.166 ± 0.029	1.042 ± 0.026
x2 = 0.6016	783.91 ± 0.48	779.18 ± 0.49	774.41 ± 0.49	1228 ± 3	1205 ± 3	1183 ± 3	1.16 ± 0.029	1.042 ± 0.026	0.942 ± 0.024
x2 = 0.7145	781.42 ± 0.48	776.68 ± 0.49	772.02 ± 0.5	1236 ± 3	1213 ± 3	1189 ± 3	1.066 ± 0.026	0.968 ± 0.024	0.888 ± 0.023
x2 = 0.8067	779.85 ± 0.48	775.08 ± 0.49	770.26 ± 0.5	1245 ± 3	1222 ± 3	1198 ± 3	0.98 ± 0.025	0.892 ± 0.023	0.817 ± 0.021
x2 = 0.9046	778.86 ± 0.48	774.06 ± 0.49	769.22 ± 0.49	1259 ± 3	1235 ± 3	1211 ± 3	0.962 ± 0.024	0.879 ± 0.022	0.806 ± 0.021
x2 = 0.9523	778.43 ± 0.48	773.65 ± 0.49	768.82 ± 0.49	1267 ± 3	1242 ± 3	1218 ± 3	0.993 ± 0.025	0.908 ± 0.023	0.833 ± 0.021
